Experimental data from patent US20070232563A1, “Method for Enhancing Biological Activity and/or Expanding Suitable Region for Biological Activity of Living Body Contacting with Aqueous Environment” (Kabushiki Kaisha Hayashibara Seibutsu Kagaku Kenky, priority 2004, published 2007).

What was measured:
[1] = tested on: short-necked clam (Ruditapes philippinarum); assay: Biological activity of short-necked clam (aqueduct extension score) in aqueous mineral solutions; assay type: in vivo; details: for Judgment score of biological activity: Experiment 2; for Judgment score for biological activity: total of 18 clams, 16 h
Experimental: Suitable region for biological activity of short-necked clam (Ruditapes philippinarum), as a fish or shellfish living in seawater, was examined by adding various saccharides to mineral aqueous solutions with various concentrations. In detail, solar salt (85% by weight of sodium chloride and 15% by weight of magnesium) as minerals was dissolved in running water kept in a container for two days to give final concentrations described in the following Table 1. Saccharide (any one of D-glucose, maltose, sucrose, maltitol, α,α-trehalose, α-maltosyl α,α-trehalose, maltotetraose and cyclic tetrasaccharide) was dissolved in the resulting salt solutions to give a final concentration of 1 w/v %, on a dry solid basis. Each of the resulting solutions was placed in a plastic bat. Eighteen pre-selected active short-necked clam in one group were placed in the bat. The bat was shaded with a black cloth and left at ambient temperature (18° C.) for 16 hours. As a control, an aqueous solar salt solution without any saccharides was prepared. Saccharides except for α-maltosyl α,α-trehalose as a saccharide derivatives thereof and cyclic tetrasaccharide were chosen from commercialized products. α-Maltosyl α,α-trehalose as saccharide derivatives of α,α-trehalose in a powder form with a purity of 98 w/w % or over was prepared by the method disclosed in Experiment 4 in Japanese Patent Kokai No. 143876/1995. Cyclic tetrasaccharide in a crystalline form with a purity of 98 w/w % or over, on a dry solid basis, was prepared by the method disclosed in Example A-7 in International Patent Publication No. WO02/10361. Influence of various saccharides was judged by observing the degree of extending aqueduct of the shellfish; 3 points: its aqueduct is well extended; 2 points: its aqueduct is slightly extended; 1 point: its aqueduct is not extended but its shells are opened; 0 point: its shells are closed. The effect on biological activity was judged by the total point of 18 shellfishes. To investigate the effective concentration range of α,α-trehalose or α-maltosyl α,α-trehalose against a mineral solution with a concentration of 1.5 w/v % or 4.5 w/v %, where α,α-trehalose or α-maltosyl α,α-trehalose was remarkably effective in Experiment 1, the following experiment using α,α-trehalose or α-maltosyl α,α-trehalose at a concentration of 0.01, 0.1, 1, 2, 3 or 4 w/v % was carried out according to the method in Experiment 1. As a control, mineral aqueous solutions with a concentration of 1.5 w/v % or 4.5 w/v % without any of the saccharides were prepared and carried out in the same manner.

unpolished rice = assay: Germination of unpolished rice in aqueous mineral solution; assay type: in vivo
Experimental: Suitable mineral range of aqueous mineral solutions containing saccharides was examined by using unpolished rice as an agricultural product. In detail, a commercialized purified salt as a mineral was dissolved in tap water to give a final concentration of 0.5, 1.0, 1.5, or 2.0 as described in the following Table 6. α,α-Trehalose or α-maltosyl α,α-trehalose was dissolved in the resulting solutions to give a final concentration of 1 w/v %, on a dry solid basis. Absorbent cotton was allowed to absorb the resulting solution in an appropriate amount and placed in a plastic laboratory dish with a cover. Commercialized unpolished rice grains were placed on the cotton in the dish by 20 grains per group and kept at ambient temperature (25° C.) under a light-shaded condition by covering with a black cloth. As controls, an aqueous mineral solution without saccharides, and water without saccharides and minerals were prepared. […] Effective concentration of α,α-trehalose or α-maltosyl α,α-trehalose on expanding suitable region for biological activity of unpolished rice grains were determined by examining the number of germinated unpolished rice grains and germination time as an index in accordance with the method in Experiment 6 in the aqueous mineral solution with mineral concentration of 1.5 w/v %, where α,α-trehalose or α-maltosyl α,α-trehalose was effective in Experiment 6, containing α,α-trehalose or α-maltosyl α,α-trehalose in a concentration of 0.01, 0.1, 1, 2, 3, 4 or 6 w/v %, on a dry solid basis. As a control, water without saccharides or minerals was used.

[2] = mineral 1.5 w/v %, saccharide 1 w/v %
[3] = mineral 4.5 w/v %, saccharide 1 w/v %

OC[C@H]1O[C@H](O[C@H]2O[C@H](CO)[C@@H](O)[C@H](O)[C@H]2O)[C@H](O)[C@@H](O)[C@@H]1O [α,α-Trehalose, α,α-trehalose]
Judgment score of biological activity ([1]; mineral 1.5 w/v %, saccharide 0.01 w/v %): 19 | Judgment score of biological activity ([1]; mineral 1.5 w/v %, saccharide 0.1 w/v %): 38 | Judgment score of biological activity [1, 2]: 44 | Judgment score of biological activity ([1]; mineral 1.5 w/v %, saccharide 2 w/v %): 47 | Judgment score of biological activity ([1]; mineral 1.5 w/v %, saccharide 3 w/v %): 38 | Judgment score of biological activity ([1]; mineral 1.5 w/v %, saccharide 4 w/v %): 21 | Judgment score of biological activity ([1]; mineral 4.5 w/v %, saccharide 0.01 w/v %): 21 | Judgment score of biological activity ([1]; mineral 4.5 w/v %, saccharide 0.1 w/v %): 35 | Judgment score of biological activity [1, 3]: 50 | Judgment score of biological activity ([1]; mineral 4.5 w/v %, saccharide 2 w/v %): 51 | Judgment score of biological activity ([1]; mineral 4.5 w/v %, saccharide 3 w/v %): 31 | Judgment score of biological activity ([1]; mineral 4.5 w/v %, saccharide 4 w/v %): 18 | Judgment score for biological activity ([1]; mineral 0 w/v %, saccharide 1 w/v %): 12 | Judgment score for biological activity ([1]; mineral 0.5 w/v %, saccharide 1 w/v %): 16 | Judgment score for biological activity ([1]; mineral 1.0 w/v %, saccharide 1 w/v %): 38 | Judgment score for biological activity [1, 2]: 44 | Judgment score for biological activity ([1]; mineral 2.0 w/v %, saccharide 1 w/v %): 47 | Judgment score for biological activity ([1]; mineral 2.5 w/v %, saccharide 1 w/v %): 51 | Judgment score for biological activity ([1]; mineral 3.0 w/v %, saccharide 1 w/v %): 54 | Judgment score for biological activity ([1]; mineral 3.5 w/v %, saccharide 1 w/v %): 50 | Judgment score for biological activity ([1]; mineral 4.0 w/v %, saccharide 1 w/v %): 50 | Judgment score for biological activity [1, 3]: 49 | Judgment score for biological activity ([1]; mineral 5.0 w/v %, saccharide 1 w/v %): 34 | Judgment score for biological activity ([1]; mineral 5.5 w/v %, saccharide 1 w/v %): 10 | Judgment score for biological activity ([1]; mineral 6.0 w/v %, saccharide 1 w/v %): 5 | Germinated grains (Number) (unpolished rice; Experiment 7, mineral 1.5 w/v %, saccharide 0.01 w/v %, 48 hours): 0 | Germinated grains (Number) (unpolished rice; Experiment 7, mineral 1.5 w/v %, saccharide 0.01 w/v %, 72 hours): 1 | Germinated grains (Number) (unpolished rice; Experiment 7, mineral 1.5 w/v %, saccharide 0.01 w/v %, 96 hours): 2 | Germinated grains (Number) (unpolished rice; Experiment 7, mineral 1.5 w/v %, saccharide 0.01 w/v %, 120 hours): 3 | Germinated grains (Number) (unpolished rice; Experiment 7, mineral 1.5 w/v %, saccharide 0.1 w/v %, 48 hours): 0 | Germinated grains (Number) (unpolished rice; Experiment 7, mineral 1.5 w/v %, saccharide 0.1 w/v %, 72 hours): 2 | Germinated grains (Number) (unpolished rice; Experiment 7, mineral 1.5 w/v %, saccharide 0.1 w/v %, 96 hours): 5 | Germinated grains (Number) (unpolished rice; Experiment 7, mineral 1.5 w/v %, saccharide 0.1 w/v %, 120 hours): 6 | Germinated grains (Number) (unpolished rice; Experiment 7, mineral 1.5 w/v %, saccharide 1 w/v %, 48 hours): 1 | Germinated grains (Number) (unpolished rice; Experiment 7, mineral 1.5 w/v %, saccharide 1 w/v %, 72 hours): 4 | Germinated grains (Number) (unpolished rice; Experiment 7, mineral 1.5 w/v %, saccharide 1 w/v %, 96 hours): 6 | Germinated grains (Number) (unpolished rice; Experiment 7, mineral 1.5 w/v %, saccharide 1 w/v %, 120 hours): 6 | Germinated grains (Number) (unpolished rice; Experiment 7, mineral 1.5 w/v %, saccharide 2 w/v %, 48 hours): 3 | Germinated grains (Number) (unpolished rice; Experiment 7, mineral 1.5 w/v %, saccharide 2 w/v %, 72 hours): 6 | Germinated grains (Number) (unpolished rice; Experiment 7, mineral 1.5 w/v %, saccharide 2 w/v %, 96 hours): 7 | Germinated grains (Number) (unpolished rice; Experiment 7, mineral 1.5 w/v %, saccharide 2 w/v %, 120 hours): 7 | Germinated grains (Number) (unpolished rice; Experiment 7, mineral 1.5 w/v %, saccharide 3 w/v %, 48 hours): 3 | Germinated grains (Number) (unpolished rice; Experiment 7, mineral 1.5 w/v %, saccharide 3 w/v %, 72 hours): 6 | Germinated grains (Number) (unpolished rice; Experiment 7, mineral 1.5 w/v %, saccharide 3 w/v %, 96 hours): 6 | Germinated grains (Number) (unpolished rice; Experiment 7, mineral 1.5 w/v %, saccharide 3 w/v %, 120 hours): 6 | Germinated grains (Number) (unpolished rice; Experiment 7, mineral 1.5 w/v %, saccharide 4 w/v %, 48 hours): 1 | Germinated grains (Number) (unpolished rice; Experiment 7, mineral 1.5 w/v %, saccharide 4 w/v %, 72 hours): 6 | Germinated grains (Number) (unpolished rice; Experiment 7, mineral 1.5 w/v %, saccharide 4 w/v %, 96 hours): 6 | Germinated grains (Number) (unpolished rice; Experiment 7, mineral 1.5 w/v %, saccharide 4 w/v %, 120 hours): 6 | Germinated grains (Number) (unpolished rice; Experiment 7, mineral 1.5 w/v %, saccharide 6 w/v %, 48 hours): 0 | Germinated grains (Number) (unpolished rice; Experiment 7, mineral 1.5 w/v %, saccharide 6 w/v %, 72 hours): 2 | Germinated grains (Number) (unpolished rice; Experiment 7, mineral 1.5 w/v %, saccharide 6 w/v %, 96 hours): 2 | Germinated grains (Number) (unpolished rice; Experiment 7, mineral 1.5 w/v %, saccharide 6 w/v %, 120 hours): 2 | Germinated grains (Number) (unpolished rice; mineral 0.5 w/v %, saccharide 1 w/v %, 24 hours, 20 grains): 0 | Germinated grains (Number) (unpolished rice; mineral 0.5 w/v %, saccharide 1 w/v %, 48 hours, 20 grains): 20 | Germinated grains (Number) (unpolished rice; mineral 0.5 w/v %, saccharide 1 w/v %, 72 hours, 20 grains): 20 | Germinated grains (Number) (unpolished rice; mineral 0.5 w/v %, saccharide 1 w/v %, 96 hours, 20 grains): 20 | Germinated grains (Number) (unpolished rice; mineral 0.5 w/v %, saccharide 1 w/v %, 120 hours, 20 grains): 20 | Germinated grains (Number) (unpolished rice; mineral 1.0 w/v %, saccharide 1 w/v %, 24 hours, 20 grains): 0 | Germinated grains (Number) (unpolished rice; mineral 1.0 w/v %, saccharide 1 w/v %, 48 hours, 20 grains): 17 | Germinated grains (Number) (unpolished rice; mineral 1.0 w/v %, saccharide 1 w/v %, 72 hours, 20 grains): 20 | Germinated grains (Number) (unpolished rice; mineral 1.0 w/v %, saccharide 1 w/v %, 96 hours, 20 grains): 20 | Germinated grains (Number) (unpolished rice; mineral 1.0 w/v %, saccharide 1 w/v %, 120 hours, 20 grains): 20 | Germinated grains (Number) (unpolished rice; mineral 1.5 w/v %, saccharide 1 w/v %, 24 hours, 20 grains): 0 | Germinated grains (Number) (unpolished rice; mineral 1.5 w/v %, saccharide 1 w/v %, 48 hours, 20 grains): 1 | Germinated grains (Number) (unpolished rice; mineral 1.5 w/v %, saccharide 1 w/v %, 72 hours, 20 grains): 4 | Germinated grains (Number) (unpolished rice; mineral 1.5 w/v %, saccharide 1 w/v %, 96 hours, 20 grains): 6 | Germinated grains (Number) (unpolished rice; mineral 1.5 w/v %, saccharide 1 w/v %, 120 hours, 20 grains): 6 | Germinated grains (Number) (unpolished rice; mineral 2.0 w/v %, saccharide 1 w/v %, 24 hours, 20 grains): 0 | Germinated grains (Number) (unpolished rice; mineral 2.0 w/v %, saccharide 1 w/v %, 48 hours, 20 grains): 0 | Germinated grains (Number) (unpolished rice; mineral 2.0 w/v %, saccharide 1 w/v %, 72 hours, 20 grains): 0 | Germinated grains (Number) (unpolished rice; mineral 2.0 w/v %, saccharide 1 w/v %, 96 hours, 20 grains): 0 | Germinated grains (Number) (unpolished rice; mineral 2.0 w/v %, saccharide 1 w/v %, 120 hours, 20 grains): 0
